# Values of other authors as cited in patent EP4379726A1, “THE METHOD FOR PREDICTING THE OCCURRENCE OF THE OFF-TARGET TOXICITY CAUSED BY SIMILARITY BETWEEN A TARGET EPITOPE AND PUTATIVE OFF-TARGET EPITOPES” (Ardigen S.A., priority 2022, dated 2024).
# Tested on: AFP 158 -Specific TCR Engineered T Cells
# Settings: in vitro X-scan, engineered T cells against AFP 158 (FMNKFIYEI)
sequence,measurement,value
ILNKFIPDI,activation of the T-cell,could activate the T-cell
